Results on one compound are retold here after patent publication US10287265B2, “Enantiomers of 8-hydroxyquinoline derivatives and the synthesis thereof” (AVIDIN Co. Ltd., priority 2015, dated 2019).

The test system of experiment [1] is C57BL6/J mice. Kind of experiment: Scopolamine-induced short-term memory impairment, Y maze test. It counts as in vivo, mouse. To be noted: per os gavage; scopolamine 0.6 mg/kg i.p. 30 min prior to Y maze test. Here is the method: In vivo experiments were carried out according to the National Institute of Health guidelines for the care and use of laboratory animals, approved by the French Ministry for Research and Technology. In the course of experiments, animals were housed at a standard temperature (22±1° C.) and in a light-controlled environment (lights on from 7 a.m. to 8 p.m.) with ad libitum access to food and water. Male C57BL/6 mice (C57BL/6J Rj, ref. SC-CJ-12w-M, Janvier, France) were housed 5 animals per cage. From one week before the start of the experiment until the end of the experiment, mice were housed individually. Animals were monitored twice-a-day by laboratory personnel (8 a.m. and 4 p.m.). In this project, young (14 weeks old) as well as aged (15-16 months old) mice were used. Experiments were carried out using 12 mice per experimental group.
Investigation of short-term working memory—Y maze test Y maze tests were carried out as previously described. Prior to testing, mice were brought to the experimental room for at least 30 min to acclimatize to experimental room conditions. […] Each arm entry was recorded with those entries being counted where the mouse completely placed its hind paws in the chosen arm. […] Results were calculated as the percentage of the ratio of actual detected alternations to possible alternations (defined as the number of total arm entries minus 2). […]

For experiment [2], the target named is T1, human caspase 3 enzyme (Homo sapiens, UniProt P42574).
T1 construct: host or cells: E. coli
T1 sequence (P42574 29-175 limits assumed): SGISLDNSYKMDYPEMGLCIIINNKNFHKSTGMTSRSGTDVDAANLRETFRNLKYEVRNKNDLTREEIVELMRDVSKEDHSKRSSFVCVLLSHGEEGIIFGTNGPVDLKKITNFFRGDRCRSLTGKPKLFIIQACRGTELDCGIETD
T1 sequence (P42574 176-277 limits assumed): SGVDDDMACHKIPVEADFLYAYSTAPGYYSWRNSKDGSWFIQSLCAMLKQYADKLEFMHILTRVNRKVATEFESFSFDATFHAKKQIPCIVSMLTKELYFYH
In words: Caspase 3 peptidase activity, Ac-DEVD-AMC substrate, fluorescence. The experiment is classed as biochemical. Here is the method:
Throughout the experiments, human caspase 3 enzyme produced in E. coli was used as previously described (Mittl PRE, Marco S D, Krebs J F, Karanewsky D S, Priestle J P, Tomaselli K J and Grutter M G (1997) Structure of Recombinant Human CPP32 in Complex with the Tetrapeptide Acetyl-Asp-Val-Ala-Asp Fluoromethyl Ketone. J Biol Chem. 272: 6539-6547). […] After the addition of […] Ac-DEVD-AMC substrate, the reaction ran for 60 min. The amount of generated AMC (7-amino-4-methylcoumarine), which gives information about the enzyme activity, was detected by fluorescence at 360/465 nm.

As to `Cc1ccnc(N[C@H](c2ccc(C(F)(F)F)cc2)c2ccc3cccnc3c2O)n1` [Example 2, 7-[(R)-[(4-Methylpyrimidin-2-yl)amino][4-(trifluoromethyl)phenyl]methyl]quinolin-8-ol], in experiment [1], the “inhibition of scopolamine-induced short-term memory impairment” value is listed as “inhibited”. For the same compound, in experiment [2], the “inhibition of caspase-3 enzyme (concentration range in words)” value was “inhibits in micromolar concentration”. In experiment [2] (applied concentration of 10 μM), the “reduction of the activity of caspase 3 enzyme” value came out at 74%.
